{
  "source": "patent US20130245081A1",
  "about": "“Compositions and Methods for Treating Amyotrophic Lateral Sclerosis” (priority 2009, published 2013)",
  "system": "patients with ALS",
  "key": {"[1]": {"conditions": "50 mg, through the end of the study"}, "[2]": {"conditions": "300 mg, No Riluzole Use, through Week 28"}, "[3]": {"conditions": "300 mg, Riluzole Use, through Week 28"}, "[4]": {"conditions": "300 mg, any post-baseline visit"}, "[5]": {"conditions": "300 mg, double-blind treatment period"}},
  "note": "Values joined by “and” are separate entries in the source; they are usually repeats but may differ in a detail not shown here. Equal values may be shown once. Read-outs that look alike come from different tables or passages of the source.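 Also: adverse event data gathered at every clinic visit and phone contact, after first study drug dose, in a blinded trial, counts of affected subjects.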",
  "data": [
    {"smiles": "CCCN[C@@H]1CCc2nc(N)sc2C1", "note": "[dexpramipexole, (6R)-2-amino-4,5,6,7-tetrahydro-6-(propylamino)benzothiazole]", "values": [
      {"measurement": "≧1 serious treatment-related TEAE", "setting": "[1]", "value": "1 (2%) N (%)"},
      {"measurement": "≧1 severe TEAE", "setting": "[1]", "value": "13 N (%) and 13 (27%) N (%)"},
      {"measurement": "≧1 treatment-related TEAE", "setting": "[1]", "value": "16 (33%) N (%)"},
      {"measurement": "subjects with increase from baseline in QTcF >30 msec", "setting": "300 mg", "value": 5, "unit": "subjects"},
      {"measurement": "AE: Anxiety", "setting": "[2]", "value": "1 (7%) N (%)"},
      {"measurement": "AE: Depression", "setting": "[2]", "value": "1 (7%) N (%)"},
      {"measurement": "AE: Dysarthria", "setting": "[2]", "value": "2 (13%) N (%)"},
      {"measurement": "AE: Dysphagia", "setting": "[2]", "value": "2 (13%) N (%)"},
      {"measurement": "AE: Fall", "setting": "[2]", "value": "4 (27%) N (%)"},
      {"measurement": "AE: Muscular weakness", "setting": "[2]", "value": "3 (20%) N (%)"},
      {"measurement": "AE: Nausea", "setting": "[2]", "value": "0 N (%)"},
      {"measurement": "AE: Oedema peripheral", "setting": "[2]", "value": "0 N (%)"},
      {"measurement": "AE: Pharyngolaryngeal pain", "setting": "[2]", "value": "1 (7%) N (%)"},
      {"measurement": "AE: Salivary hypersecretion", "setting": "[2]", "value": "2 (13%) N (%)"},
      {"measurement": "AE: Sinusitis", "setting": "[2]", "value": "0 N (%)"},
      {"measurement": "AE: Urinary tract infection", "setting": "[2]", "value": "1 (7%) N (%)"},
      {"measurement": "AE: Anxiety", "setting": "[3]", "value": "4 (14%) N (%)"},
      {"measurement": "AE: Depression", "setting": "[3]", "value": "4 (14%) N (%)"},
      {"measurement": "AE: Dysarthria", "setting": "[3]", "value": "3 (10%) N (%)"},
      {"measurement": "AE: Dysphagia", "setting": "[3]", "value": "2 (7%) N (%)"},
      {"measurement": "AE: Fall", "setting": "[3]", "value": "7 (24%) N (%)"},
      {"measurement": "AE: Headache", "setting": "[3]", "value": "2 N (%) and 2 (7%) N (%)"},
      {"measurement": "AE: Muscular weakness", "setting": "[3]", "value": "4 (14%) N (%)"},
      {"measurement": "AE: Oedema peripheral", "setting": "[3]", "value": "1 (3%) N (%)"},
      {"measurement": "AE: Pharyngolaryngeal pain", "setting": "[3]", "value": "2 (7%) N (%)"},
      {"measurement": "AE: Salivary hypersecretion", "setting": "[3]", "value": "3 (10%) N (%)"},
      {"measurement": "AE: Urinary tract infection", "setting": "[3]", "value": "3 (10%) N (%)"},
      {"measurement": "incidence of ECGs with QTcB increased >30 msec from baseline", "setting": "[4]", "value": 30, "unit": "%"},
      {"measurement": "subjects with QTcF interval >450 msec", "setting": "[4]", "value": 3, "unit": "subjects"},
      {"measurement": "AEs related to ALS as assessed by the Investigator", "setting": "[5]", "value": 80, "unit": "%"},
      {"measurement": "hemoglobin value in 1 subject (potentially clinically significant)", "setting": "[5]", "value": 7.8, "unit": "g/dL"},
      {"measurement": "subjects with prolonged QTcB", "setting": "[5]", "value": 3, "unit": "subjects"},
      {"measurement": "subjects with serum chemistry abnormalities of potential clinical significance", "setting": "[5]", "value": 4, "unit": "subjects"},
      {"measurement": "neutrophil count in 1 subject with neutropenia", "setting": "300 mg, noted at baseline of the placebo washout period", "value": 1180, "unit": "µL⁻¹"},
      {"measurement": "ALS-related TEAE: Affect liability", "setting": "300 mg, through Week 28", "value": "0 N (%)"},
      {"measurement": "ALS-related TEAE: Arthralgia", "setting": "300 mg, through Week 28", "value": "1 (2%) N (%)"},
      {"measurement": "ALS-related TEAE: Choking", "setting": "300 mg, through Week 28", "value": "0 N (%)"},
      {"measurement": "ALS-related TEAE: Constipation", "setting": "300 mg, through Week 28", "value": "4 (9%) N (%)"},
      {"measurement": "ALS-related TEAE: Contusion", "setting": "300 mg, through Week 28", "value": "1 (2%) N (%)"},
      {"measurement": "ALS-related TEAE: Dehydration", "setting": "300 mg, through Week 28", "value": "2 (5%) N (%)"},
      {"measurement": "ALS-related TEAE: Depression", "setting": "300 mg, through Week 28", "value": "1 (2%) N (%)"},
      {"measurement": "ALS-related TEAE: Disease progression", "setting": "300 mg, through Week 28", "value": "2 (5%) N (%)"},
      {"measurement": "ALS-related TEAE: Dysarthria", "setting": "300 mg, through Week 28", "value": "5 (11%) N (%)"},
      {"measurement": "ALS-related TEAE: Dysphagia", "setting": "300 mg, through Week 28", "value": "3 (7%) N (%)"},
      {"measurement": "ALS-related TEAE: Dysphasia", "setting": "300 mg, through Week 28", "value": "1 (2%) N (%)"},
      {"measurement": "ALS-related TEAE: Dyspnoea", "setting": "300 mg, through Week 28", "value": "5 (11%) N (%)"},
      {"measurement": "ALS-related TEAE: Dyspnoea exertional", "setting": "300 mg, through Week 28", "value": "2 (5%) N (%)"},
      {"measurement": "ALS-related TEAE: Fall", "setting": "300 mg, through Week 28", "value": "10 (23%) N (%)"},
      {"measurement": "ALS-related TEAE: Fatigue", "setting": "300 mg, through Week 28", "value": "2 (5%) N (%)"},
      {"measurement": "ALS-related TEAE: Gastrointestinal Disorders", "setting": "300 mg, through Week 28", "value": "11 (25%) N (%)"},
      {"measurement": "ALS-related TEAE: General Disorders and Administration Site Conditions", "setting": "300 mg, through Week 28", "value": "6 (14%) N (%)"},
      {"measurement": "ALS-related TEAE: Increased upper airway secretion", "setting": "300 mg, through Week 28", "value": "2 (5%) N (%)"},
      {"measurement": "ALS-related TEAE: Injury, Poisoning and Procedural Complications", "setting": "300 mg, through Week 28", "value": "10 (23%) N (%)"},
      {"measurement": "ALS-related TEAE: Investigations", "setting": "300 mg, through Week 28", "value": "5 (11%) N (%)"},
      {"measurement": "ALS-related TEAE: Metabolism and Nutrition Disorders", "setting": "300 mg, through Week 28", "value": "4 (9%) N (%)"},
      {"measurement": "ALS-related TEAE: Muscle contractions involuntary", "setting": "300 mg, through Week 28", "value": "2 (5%) N (%)"},
      {"measurement": "ALS-related TEAE: Muscle spasticity", "setting": "300 mg, through Week 28", "value": "1 (2%) N (%)"},
      {"measurement": "ALS-related TEAE: Muscle twitching", "setting": "300 mg, through Week 28", "value": "2 (5%) N (%)"},
      {"measurement": "ALS-related TEAE: Muscular weakness", "setting": "300 mg, through Week 28", "value": "7 (16%) N (%)"},
      {"measurement": "ALS-related TEAE: Musculoskeletal and Connective Tissue Disorders", "setting": "300 mg, through Week 28", "value": "14 (32%) N (%)"},
      {"measurement": "ALS-related TEAE: Musculoskeletal pain", "setting": "300 mg, through Week 28", "value": "3 (7%) N (%)"},
      {"measurement": "ALS-related TEAE: Myalgia", "setting": "300 mg, through Week 28", "value": "0 N (%)"},
      {"measurement": "ALS-related TEAE: Neck pain", "setting": "300 mg, through Week 28", "value": "1 (2%) N (%)"},
      {"measurement": "ALS-related TEAE: Nervous System Disorders", "setting": "300 mg, through Week 28", "value": "10 (23%) N (%)"},
      {"measurement": "ALS-related TEAE: Oedema peripheral", "setting": "300 mg, through Week 28", "value": "1 (2%) N (%)"},
      {"measurement": "ALS-related TEAE: Pain in extremity", "setting": "300 mg, through Week 28", "value": "0 N (%)"},
      {"measurement": "ALS-related TEAE: Psychiatric Disorders", "setting": "300 mg, through Week 28", "value": "1 (2%) N (%)"},
      {"measurement": "ALS-related TEAE: Respiratory failure", "setting": "300 mg, through Week 28", "value": "0 N (%)"},
      {"measurement": "ALS-related TEAE: Respiratory, Thoracic and Mediastinal Disorders", "setting": "300 mg, through Week 28", "value": "11 (25%) N (%)"},
      {"measurement": "ALS-related TEAE: Salivary hypersecretion", "setting": "300 mg, through Week 28", "value": "5 (11%) N (%)"},
      {"measurement": "ALS-related TEAE: Vital capacity decreased", "setting": "300 mg, through Week 28", "value": "1 (2%) N (%)"},
      {"measurement": "ALS-related TEAE: Weight decreased", "setting": "300 mg, through Week 28", "value": "2 (5%) N (%)"},
      {"measurement": "Number of TEAEs", "setting": "300 mg, through Week 28", "value": 303},
      {"measurement": "Number of serious TEAEs", "setting": "300 mg, through Week 28", "value": 9},
      {"measurement": "Number of serious treatment-related TEAE", "setting": "300 mg, through Week 28", "value": 1},
      {"measurement": "Number of severe TEAEs", "setting": "300 mg, through Week 28", "value": 12},
      {"measurement": "Number of treatment-related TEAEs", "setting": "300 mg, through Week 28", "value": 46},
      {"measurement": "Subjects with a TEAE with action taken of study drug discontinued", "setting": "300 mg, through Week 28", "value": "0 N (%)"},
      {"measurement": "TEAE: Anxiety", "setting": "300 mg, through Week 28", "value": "5 (11%) N (%)"},
      {"measurement": "TEAE: Arthralgia", "setting": "300 mg, through Week 28", "value": "3 (7%) N (%)"},
      {"measurement": "TEAE: Cardiac Disorders", "setting": "300 mg, through Week 28", "value": "8 (18%) N (%)"},
      {"measurement": "TEAE: Constipation", "setting": "300 mg, through Week 28", "value": "11 (25%) N (%)"}
    ]}
  ]
}
